Test system: PDE4
Experiment: PDE4 Assay Procedure ([3H]-cAMP SPA)
Format: biochemical
Settings: 15 nM [3H]-cAMP, 1 hour at room temperature, SPA beads
Experimental: Compounds to be tested were resuspended in DMSO at a stock concentration of 1 mM. […] These dilutions were done in 96-well plates. In some cases, plates containing diluted compounds were frozen before being assayed. In these cases, the plates were thawed at room temperature and stirred for 15 minutes.
Ten microliters of the diluted compounds were poured into a “low binding” assay plate. […] The reaction was initiated by adding ten microliters of a solution containing PDE4. The plate was then incubated under stirring for 1 hour at room temperature. After incubation the reaction was stopped with 50 microlitres of SPA beads, and the reaction was allowed to incubate for another 20 minutes at room temperature before measuring radioactivity using standard instrumentation.
The reaction mixture was prepared by adding 90 ml of H2O to 10 ml of 10× assay buffer (500 mM Tris pH 7.5, 83 mM MgCl2, 17 mM EGTA), and 40 microlitres 1 μCi/μL [3H]-cAMP. SPA beads solution was prepared by adding 500 mg to 28 ml H2O for a final concentration of 20 mg/ml beads and 18 mM zinc sulphate.

Structure (SMILES)	IC50
CC1(C)Cc2c(c(N3CCOCC3)nc3oc4c(N(CCN5CCOCC5)Cc5cccnc5)ncnc4c23)CO1 [Example 14, 2,2-Dimethyl-5-morpholin-4-yl-N-(2-morpholin-4-ylethyl)-N-(pyridin-3-ylmethyl)-1,4-dihydro-2H-pyrano[4″,3″:4′,5′]pyrido[3′,2′:4,5]furo[3,2-d]pyrimidin-8-amine]	10 nM
CC1(C)CCc2c(N3CCOCC3)nc3oc4c(N(CCO)CCN5CCOCC5)ncnc4c3c2C1 [Example 20, 2-[(2,2-Dimethyl-5-morpholin-4-yl-1,2,3,4-tetrahydropyrimido[4′,5′:4,5]furo[2,3-c]isoquinolin-8-yl)(2-morpholin-4-ylethyl)amino]ethanol]	0.8 nM
CC1(C)CCc2c(N3CCOCC3)nc3oc4c(NCCN5CCOCC5)ncnc4c3c2C1 [Example 23, 2,2-Dimethyl-5-morpholin-4-yl-N-(2-morpholin-4-ylethyl)-1,2,3,4-tetrahydropyrimido[4′,5′:4,5]furo[2,3-c]isoquinolin-8-amine]	8.9 nM
CCNc1nc2oc3c(NCCN4CCOCC4)ncnc3c2c2c1CCC(C)(C)C2 [Example 31, N^5-Ethyl-2,2-dimethyl-N^8-(2-morpholin-4-ylethyl)-1,2,3,4-tetrahydropyrimido[4′,5′:4,5]furo[2,3-c]isoquinoline-5,8-diamine]	2 nM
CCNc1nc2oc3c(NCCCN4CCCC4=O)ncnc3c2c2c1CCC(C)(C)C2 [Example 35, 1-(3-{[5-(Ethylamino)-2,2-dimethyl-1,2,3,4-tetrahydropyrimido[4′,5′:4,5]furo[2,3-c]isoquinolin-8-yl]amino}propyl)pyrrolidin-2-one]	1.6 nM
CC1(C)CCc2c(NC3CCC3)nc3oc4c(NCCN5CCOCC5)ncnc4c3c2C1 [Example 46, N^5-Cyclobutyl-2,2-dimethyl-N^8-(2-morpholin-4-ylethyl)-1,2,3,4-tetrahydropyrimido [4′,5′:4,5]furo[2,3-c]isoquinoline-5,8-diamine]	0.7 nM

From patent US20080221096A1, “Pyrido[3' ,2':4,5]Furo[3,2-d]Pyrimidine Derivatives” (priority 2005, published 2008)
